Assay results published in patent US6884802B2, “6-heteroarylphenanthridines” (ALTANA Pharma AG, priority 2000, dated 2005).

Test system: PDE4
Assay: Inhibition of PDE4 activity ([3H]cAMP hydrolysis, cytosol from human neutrophils)
Format: biochemical
Settings: 0.5 μM cAMP, Motapizone 1 μM included to suppress PDE3, 37° C.
Protocol: Method for Measuring Inhibition of PDE4 Activity
PDE4 activity was determined as described by Thompson et al. (Adv Cycl Nucl Res 10: 69-92, 1979) with some modifications (Bauer and Schwabe, Naunyn-Schmiedeberg's Arch Pharmacol 311: 193-198, 1980). At a final assay volume of 200 μl (96 well microtiter plates) the assay mixture contained 20 mM Tris (pH 7.4), 5 mM MgCl2, 0.5 μM cAMP, [^3H]cAMP (about 30,000 cpm/assay), the test compound and an aliquot of cytosol from human neutrophils which mainly contains PDE4 activity as described by Schudt et al. (Naunyn-Schmiedeberg's Arch Pharmacol 344: 682-690, 1991); the PDE3-specific inhibitor Motapizone (1 μM) was included to suppress PDE3 activity originating from contaminating platelets. Serial dilutions of the compounds were prepared in DMSO and further diluted 1:100 (v/v) in the assays to obtain the desired final concentrations of the inhibitors at a DMSO concentration of 1% (v/v) which by itself only slightly affected PDE4 activity.
After preincubation for 5 min at 37° C., the reaction was started by the addition of substrate (cAMP) and the assays were incubated for further 15 min at 37° C. 50 μl of 0.2 N HCl was added to stop the reaction and the assays were left on ice for about 10 min. Following incubation with 25 μg 5′-nucleotidase (Crotalus atrox snake venom) for 10 min at 37° C., the assays were loaded on QAE Sephadex A-25 (1 ml bed volume). The columns were eluted with 2 ml of 30 mM ammonium formiate (pH 6.0) and the eluate was counted for radioactivity. Results were corrected for blank values (measured in the presence of denatured protein) which were below 5% of total radioactivity. […] The IC50-values for the compounds according to the invention for the inhibition of the PDE4 activity were determined from the concentration-inhibition curves by nonlinear-regression.

Structure (SMILES)	Inhibition of PDE4 activity [measured as −logC50 (mol/l)]
COc1cc2c(cc1OC)[C@@H]1CCCC[C@@H]1N=C2c1cccs1 (relative stereo) [Compound 7, cis-8,9-Dimethoxy-6-(thiophen-2-yl)-1,2,3,4,4a,10b-hexahydrophenanthridine]	8.14 −log(mol/l)
COc1cc2c(cc1OC)[C@@H]1CCCC[C@@H]1N=C2c1ccc(C)s1 (relative stereo) [Compound 8, cis-8,9-Dimethoxy-6-(5-methyl-thiophen-2-yl)-1,2,3,4,4a,10b-hexahydrophenanthridine]	8.19 −log(mol/l)
COc1cc2c(cc1OC)[C@@H]1CCCC[C@@H]1N=C2c1ccsc1 (relative stereo) [Compound 9, cis-8,9-Dimethoxy-6-(thiophen-3-yl)-1,2,3,4,4a,10b-hexahydrophenanthridine]	7.45 −log(mol/l)
COc1cc2c(cc1OC)[C@@H]1CCCC[C@@H]1N=C2c1cc2ccccc2[nH]1.O=C(O)C(F)(F)F (relative stereo) [Compound 10, cis-8,9-Dimethoxy-6-(1H-indol-2-yl)-1,2,3,4,4a,10b-hexahydrophenanthridine trifluoroacetate]	8.19 −log(mol/l)
COc1cc2c(cc1OC)[C@@H]1CCCC[C@@H]1N=C2c1cc2cc(F)ccc2[nH]1.O=C(O)C(F)(F)F (relative stereo) [Compound 11, cis-8,9-Dimethoxy-6-(5-fluoro-1H-indol-2-yl)-1,2,3,4,4a,10b-hexahydrophenanthridine trifluoroacetate]	8.14 −log(mol/l)
COc1ccc2cc(C3=N[C@H]4CCCC[C@H]4c4cc(OC)c(OC)cc43)[nH]c2c1.O=C(O)C(F)(F)F (relative stereo) [Compound 12, cis-8,9-Dimethoxy-6-(6-methoxy-1H-indol-2-yl)-1,2,3,4,4a,10b-hexahydrophenanthridine trifluoroacetate]	8.27 −log(mol/l)
COc1cc2c(cc1OC)[C@@H]1CCCC[C@@H]1N=C2c1ccc2ccccc2n1 (relative stereo) [Compound 15, cis-8,9-Dimethoxy-6-(quinolin-2-yl)-1,2,3,4,4a,10b-hexahydrophenanthridine]	7.68 −log(mol/l)
COc1cc2c(cc1OC)[C@@H]1CCCC[C@@H]1N=C2c1occc1C (relative stereo) [Compound 16, cis-8,9-Dimethoxy-6-(3-methyl-furan-2-yl)-1,2,3,4,4a,10b-hexahydrophenanthridine]	7.42 −log(mol/l)
COc1cc2c(cc1OC)[C@@H]1CCCC[C@@H]1N=C2c1cc2ccccc2s1 (relative stereo) [Compound 17, cis-8,9-Dimethoxy-6-(benzo[b]thiophen-2-yl)-1,2,3,4,4a,10b-hexahydrophenanthridine]	8.84 −log(mol/l)
COc1cc2c(cc1OC)[C@@H]1CCCC[C@@H]1N=C2c1oc2ccccc2c1C (relative stereo) [Compound 20, cis-8,9-Dimethoxy-6-(3-methyl-benzofuran-2-yl)-1,2,3,4,4a,10b-hexahydrophenanthridine]	8.53 −log(mol/l)
COc1cc2c(cc1OC)[C@@H]1CCCC[C@@H]1N=C2c1cc2cccc(OC)c2o1 (relative stereo) [Compound 21, cis-8,9-Dimethoxy-6-(7-methoxy-benzofuran-2-yl)-1,2,3,4,4a,10b-hexahydrophenanthridine]	8.51 −log(mol/l)
COc1ccc2oc(C3=N[C@H]4CCCC[C@H]4c4cc(OC)c(OC)cc43)cc2c1 (relative stereo) [Compound 23, cis-8,9-Dimethoxy-6-(5-methoxy-benzofuran-2-yl)-1,2,3,4,4a,10b-hexahydrophenanthridine]	8.33 −log(mol/l)
COc1cc2c(cc1OC)[C@@H]1CCCC[C@@H]1N=C2c1ccnc2ccccc12 [Compound 1, (−)-cis-8,9-Dimethoxy-6-quinolin-4-yl-1,2,3,4,4a,10b-hexahydrophenanthridine]	7.4 −log(mol/l)
